From article PMC4418176 (Bioorganic & medicinal chemistry letters, 2009)

Experiments:
NTR1 = NTR1 (Homo sapiens, UniProt P30989); assay: NTR1 agonist-mediated calcium mobilization assay; format: cell-based; conditions: for NTR1 specificity of the observed calcium release (block by NTR1 antagonist 1a): cells pre-incubated with 1 or 10 mM 1a for 15 min at 37 °C, test compound at its EC50, data not shown
NTR1 receptor = conditions: calcium release (FLIPR) assay; cited from earlier work

Chain of NTR1 (P30989 whole entry, species assumed): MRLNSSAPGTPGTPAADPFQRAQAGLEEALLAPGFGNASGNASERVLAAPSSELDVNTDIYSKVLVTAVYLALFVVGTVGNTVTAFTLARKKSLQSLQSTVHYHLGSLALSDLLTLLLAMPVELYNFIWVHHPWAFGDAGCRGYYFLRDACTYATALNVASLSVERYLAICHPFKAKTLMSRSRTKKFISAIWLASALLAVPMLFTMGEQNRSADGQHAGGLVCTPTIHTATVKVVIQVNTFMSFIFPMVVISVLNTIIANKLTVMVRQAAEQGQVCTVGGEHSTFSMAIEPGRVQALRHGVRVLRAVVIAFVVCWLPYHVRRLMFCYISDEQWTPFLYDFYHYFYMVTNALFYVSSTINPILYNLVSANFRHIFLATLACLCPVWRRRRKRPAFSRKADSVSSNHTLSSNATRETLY

For COc1cccc(OC)c1-c1cc(C(=O)N[C@@H](CC(C)C)C(=O)O)nn1-c1ccnc2cc(Cl)ccc12 [Compound 3a], the “NTR1 specificity of the observed calcium release (block by NTR1 antagonist 1a)” value (NTR1) was “demonstrated by blocking with the NTR1 antagonist (1a)” and the Emax (NTR1; ± SEM, relative to neurotensin) was 51 %NT.

With COc1cccc(OC)c1-c1cc(C(=O)N[C@H](CC(C)C)C(=O)O)nn1-c1ccnc2cc(Cl)ccc12 [Compound 3b] the “NTR1 specificity of the observed calcium release (block by NTR1 antagonist 1a)” value (NTR1) was “demonstrated by blocking with the NTR1 antagonist (1a)”.

In the case of COc1cccc(OC)c1-c1cc(C(=O)N[C@@H](CC(C)C)C(=O)O)nn1-c1cccc2ccccc12 [Compound 5], the “agonist activity when screened” value (NTR1) is reported as “no agonist activity”.

For CC(C)CC(NC(=O)OCC1c2ccccc2-c2ccccc21)C(=O)O (stereo not shown) [Compound 6], the “NTR1 receptor partial agonist activity” value (NTR1 receptor) is listed as “partial agonist activity”.

For COc1cccc(OC)c1-c1cc(C(=O)N[C@H](C(=O)O)C2CCCCC2)nn1-c1ccnc2cc(Cl)ccc12 [Compound 1b, reference compound], the “Screen (10 μM), percent stimulation relative to NT” value (NTR1; 10 μM, in triplicate, CHO-K1 cells stably expressing NTR1, NA = not active) was “did not stimulate calcium release”.

In the case of CC(C)C[C@H](NC(=O)Cn1ccc2cc(NS(=O)(=O)c3cccc4cccnc34)ccc21)C(=O)O [Compound 7], the “NTR1 receptor partial agonist activity” value (NTR1 receptor) is listed as “partial agonist activity”.
